Results published in ChEMBL document CHEMBL1201862, “PubChem BioAssay data set” (2004).
Activity calls are given as the source filed them.

Experiments:
[1] = molecular target: Protein-tyrosine kinase 2-beta (Homo sapiens, UniProt Q14289);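 also: potency of inhibitors of PYK2 kinase phosphorylation of poly-GT substrate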
[2] = cytotoxicity toward HCT116 cells – cell-based, CellTiter-Glo luminescence, IC50, dose response (AID 1117332); type: functional; settings: HCT-116
[3] = HCT116 cell viability decrease, GSK3B pretreatment – CellTiter-Glo, IC50, dose response (AID 1117339); type: functional; settings: HCT-116
[4] = cytotoxicity toward HT-29 cells – cell-based, CellTiter-Glo luminescence, IC50, dose response (AID 1117330); type: functional
[5] = rise of 2N DNA cells, HeLa – IC50, dose response (AID 1117349); type: functional, cell-based
[6] = CellTiter-Glo luminescence survival assay, SW480 colon tumor line, concentration-response curve, half-maximal inhibitory concentration (AID 1117338); type: functional
[7] = RKO cell viability reduction, dose response, CellTiter-Glo luminescence (AID 1117322); type: functional
[8] = Reduced DLD-1 viability, concentration-response, CellTiter-Glo luminescence (AID 1117352); type: functional
[9] = rise of 4N DNA cells, HeLa – IC50, dose response (AID 1117351); type: functional, cell-based
[10] = SNU-C1 cell viability reduction, dose response, CellTiter-Glo luminescence (AID 1117323); type: functional, cell-based
[11] = cytotoxicity toward Colo320 cells – cell-based, CellTiter-Glo luminescence, IC50, dose response (AID 1117334); type: functional; settings: COLO 320
[12] = molecular target: T1, Tyrosine-protein phosphatase non-receptor type 7 (Homo sapiens, UniProt P35236); assay: HePTP tyrosine phosphatase activity blockers – biochemical, absorbance, leukemia target, primary screen (AID 521); type: functional
T1 sequence (P35236 whole entry): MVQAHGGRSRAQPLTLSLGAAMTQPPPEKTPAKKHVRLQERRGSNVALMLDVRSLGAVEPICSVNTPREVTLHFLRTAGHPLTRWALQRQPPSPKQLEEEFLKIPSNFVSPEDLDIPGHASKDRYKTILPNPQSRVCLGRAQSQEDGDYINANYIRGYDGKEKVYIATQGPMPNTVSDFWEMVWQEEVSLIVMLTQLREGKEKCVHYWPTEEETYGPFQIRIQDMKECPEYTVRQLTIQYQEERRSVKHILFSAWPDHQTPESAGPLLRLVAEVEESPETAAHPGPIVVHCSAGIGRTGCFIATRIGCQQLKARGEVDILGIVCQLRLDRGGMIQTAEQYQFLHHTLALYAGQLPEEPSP

Major prion protein = Major prion protein (Homo sapiens, UniProt P04156); type: functional, cell-based
[13] = molecular target: T2, Nuclear receptor subfamily 0 group B member 1 (Homo sapiens, UniProt P51843); type: functional, cell-based;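 also: HEK293T cells transfected with SF-1 and DAX-1 plus StAR promoter luciferase reporter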
T2 sequence (P51843 whole entry): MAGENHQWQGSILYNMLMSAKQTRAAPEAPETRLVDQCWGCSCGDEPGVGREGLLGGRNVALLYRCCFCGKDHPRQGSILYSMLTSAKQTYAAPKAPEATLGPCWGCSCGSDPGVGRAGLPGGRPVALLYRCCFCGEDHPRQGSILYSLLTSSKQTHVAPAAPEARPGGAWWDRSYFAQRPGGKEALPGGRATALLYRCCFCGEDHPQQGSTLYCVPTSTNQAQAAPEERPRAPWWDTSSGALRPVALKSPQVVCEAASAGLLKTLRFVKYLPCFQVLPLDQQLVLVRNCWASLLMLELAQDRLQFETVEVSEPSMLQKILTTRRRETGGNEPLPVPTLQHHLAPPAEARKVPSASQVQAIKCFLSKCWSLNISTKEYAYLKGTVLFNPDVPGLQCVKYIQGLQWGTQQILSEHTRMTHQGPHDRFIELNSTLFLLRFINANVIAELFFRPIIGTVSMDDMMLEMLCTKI

cells [14] = assay: cells
cells [15] = type: functional, cell-based
[16] = molecular target: Voltage-gated inwardly rectifying potassium channel KCNH2 (Homo sapiens, UniProt Q12809); assay: concentration-dependent hERG rescue from blockers – cell-based, thallium flux, dose response (AID 2121); type: ADME
Sequence of Voltage-gated inwardly rectifying potassium channel KCNH2 (Q12809 whole entry): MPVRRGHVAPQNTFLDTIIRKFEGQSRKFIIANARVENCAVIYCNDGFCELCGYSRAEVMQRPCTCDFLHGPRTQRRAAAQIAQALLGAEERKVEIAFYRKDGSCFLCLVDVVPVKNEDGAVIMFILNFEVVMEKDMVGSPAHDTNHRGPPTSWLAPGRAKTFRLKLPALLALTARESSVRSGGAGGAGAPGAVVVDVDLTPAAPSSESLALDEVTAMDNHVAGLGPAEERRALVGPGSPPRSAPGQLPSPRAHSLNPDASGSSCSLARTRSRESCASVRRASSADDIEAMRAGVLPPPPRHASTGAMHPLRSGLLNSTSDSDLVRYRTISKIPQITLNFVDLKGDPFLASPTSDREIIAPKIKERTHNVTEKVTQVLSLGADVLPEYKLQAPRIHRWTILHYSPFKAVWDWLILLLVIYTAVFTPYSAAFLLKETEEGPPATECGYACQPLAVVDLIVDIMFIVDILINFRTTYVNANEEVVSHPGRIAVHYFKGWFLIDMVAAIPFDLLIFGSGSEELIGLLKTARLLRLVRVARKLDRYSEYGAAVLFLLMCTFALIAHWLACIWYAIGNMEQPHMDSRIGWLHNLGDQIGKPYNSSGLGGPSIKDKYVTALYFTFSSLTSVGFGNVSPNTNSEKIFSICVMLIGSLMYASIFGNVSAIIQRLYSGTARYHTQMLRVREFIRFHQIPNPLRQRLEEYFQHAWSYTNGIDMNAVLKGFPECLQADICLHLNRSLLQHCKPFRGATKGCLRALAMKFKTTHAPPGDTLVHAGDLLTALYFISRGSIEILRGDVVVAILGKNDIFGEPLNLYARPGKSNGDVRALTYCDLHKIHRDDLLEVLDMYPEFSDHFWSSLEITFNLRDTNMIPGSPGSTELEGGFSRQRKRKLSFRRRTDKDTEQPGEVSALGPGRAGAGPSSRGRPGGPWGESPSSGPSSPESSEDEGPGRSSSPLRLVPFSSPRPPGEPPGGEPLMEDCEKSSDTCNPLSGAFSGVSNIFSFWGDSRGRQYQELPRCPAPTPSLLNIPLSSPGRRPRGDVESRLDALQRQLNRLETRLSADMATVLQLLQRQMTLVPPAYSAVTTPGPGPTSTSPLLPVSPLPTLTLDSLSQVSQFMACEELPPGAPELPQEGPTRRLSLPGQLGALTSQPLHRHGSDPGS

[17] = molecular target: G-protein coupled receptor 55 (Homo sapiens, UniProt Q9Y2T6); assay: inhibition of LPI-stimulated GPR55 beta-arrestin translocation – imaging, U2OS, beta-arrestin-GFP, LPI agonist, primary screen (AID 2013); type: functional;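 also: antagonist potency measured as reduced agonist-driven arrestin aggregation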
Sequence of G-protein coupled receptor 55 (Q9Y2T6 whole entry): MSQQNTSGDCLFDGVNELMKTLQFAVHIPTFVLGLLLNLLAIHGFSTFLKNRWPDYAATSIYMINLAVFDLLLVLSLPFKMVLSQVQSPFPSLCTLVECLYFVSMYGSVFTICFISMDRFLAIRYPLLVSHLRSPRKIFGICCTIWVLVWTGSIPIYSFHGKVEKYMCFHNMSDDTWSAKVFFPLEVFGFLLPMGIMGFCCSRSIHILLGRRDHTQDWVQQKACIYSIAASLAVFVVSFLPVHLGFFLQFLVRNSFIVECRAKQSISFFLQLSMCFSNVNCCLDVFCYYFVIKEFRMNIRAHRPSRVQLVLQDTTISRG

[18] = molecular target: E3 ubiquitin-protein ligase Mdm2 (Homo sapiens, UniProt Q00987); assay: MDM2-luc reporter signal enhancers, multi-concentration potency testing, MDM2 ubiquitin-protein ligase inhibitor program, whole-cell format, luminescence detection, 384-well microplate (AID 1394); type: functional;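 also: MDM2 E3 inhibitors raise luminescence so EC50 is for signal enhancement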
Sequence of E3 ubiquitin-protein ligase Mdm2 (Q00987 whole entry): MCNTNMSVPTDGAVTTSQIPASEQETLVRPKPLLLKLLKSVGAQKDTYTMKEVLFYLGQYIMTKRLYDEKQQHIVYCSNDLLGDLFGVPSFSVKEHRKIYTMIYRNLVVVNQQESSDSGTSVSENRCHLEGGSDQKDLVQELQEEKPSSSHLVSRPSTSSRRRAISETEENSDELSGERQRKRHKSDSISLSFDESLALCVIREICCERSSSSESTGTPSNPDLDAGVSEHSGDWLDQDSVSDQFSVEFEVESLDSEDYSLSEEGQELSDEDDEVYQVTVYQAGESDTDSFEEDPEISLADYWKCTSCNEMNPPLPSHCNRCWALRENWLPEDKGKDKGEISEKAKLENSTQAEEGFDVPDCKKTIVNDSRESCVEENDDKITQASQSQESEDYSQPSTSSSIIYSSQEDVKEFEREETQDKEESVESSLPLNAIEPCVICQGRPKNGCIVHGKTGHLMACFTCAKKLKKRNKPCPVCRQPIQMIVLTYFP

[19] = molecular target: T3, Replicative DNA helicase DnaB (Mycobacterium tuberculosis, UniProt P9WMR3); assay: DnaB intein splicing inhibitors, dose response, biochemical, cell-free fluorescence (AID 449749); type: functional
T3 sequence (P9WMR3 whole entry): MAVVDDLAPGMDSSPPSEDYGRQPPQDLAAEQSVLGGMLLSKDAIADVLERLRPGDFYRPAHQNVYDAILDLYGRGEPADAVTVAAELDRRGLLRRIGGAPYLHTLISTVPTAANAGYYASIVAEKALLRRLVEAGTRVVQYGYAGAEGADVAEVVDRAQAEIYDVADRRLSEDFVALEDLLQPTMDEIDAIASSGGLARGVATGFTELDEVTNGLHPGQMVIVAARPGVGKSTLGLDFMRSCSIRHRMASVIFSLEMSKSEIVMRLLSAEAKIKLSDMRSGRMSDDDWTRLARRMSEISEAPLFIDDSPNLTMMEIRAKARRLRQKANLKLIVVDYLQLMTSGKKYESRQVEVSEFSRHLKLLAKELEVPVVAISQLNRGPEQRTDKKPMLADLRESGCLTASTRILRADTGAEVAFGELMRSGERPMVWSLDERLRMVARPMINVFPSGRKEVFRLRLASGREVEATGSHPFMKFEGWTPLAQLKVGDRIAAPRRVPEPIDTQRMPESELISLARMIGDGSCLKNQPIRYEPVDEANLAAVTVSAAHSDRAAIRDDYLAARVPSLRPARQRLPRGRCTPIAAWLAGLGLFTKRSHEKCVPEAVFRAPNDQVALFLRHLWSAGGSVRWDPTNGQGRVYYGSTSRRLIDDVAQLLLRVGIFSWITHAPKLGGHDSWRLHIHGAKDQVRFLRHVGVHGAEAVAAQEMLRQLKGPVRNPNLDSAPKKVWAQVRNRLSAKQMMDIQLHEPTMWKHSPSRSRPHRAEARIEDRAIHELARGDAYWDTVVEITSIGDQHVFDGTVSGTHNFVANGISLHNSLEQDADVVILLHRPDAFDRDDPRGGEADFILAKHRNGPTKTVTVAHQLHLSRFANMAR

Protein RecA = molecular target: T4, Protein RecA (Mycobacterium tuberculosis, UniProt P9WHJ3); assay: Fluorescence Cell-Free Homogeneous Dose Retest to Identify Inhibitors of RecA-Intein Splicing Activity. [Related pubchem assays (depositor defined):AID2097, AID2223, AID489010, AID492950]; type: functional
T4 sequence (P9WHJ3 whole entry): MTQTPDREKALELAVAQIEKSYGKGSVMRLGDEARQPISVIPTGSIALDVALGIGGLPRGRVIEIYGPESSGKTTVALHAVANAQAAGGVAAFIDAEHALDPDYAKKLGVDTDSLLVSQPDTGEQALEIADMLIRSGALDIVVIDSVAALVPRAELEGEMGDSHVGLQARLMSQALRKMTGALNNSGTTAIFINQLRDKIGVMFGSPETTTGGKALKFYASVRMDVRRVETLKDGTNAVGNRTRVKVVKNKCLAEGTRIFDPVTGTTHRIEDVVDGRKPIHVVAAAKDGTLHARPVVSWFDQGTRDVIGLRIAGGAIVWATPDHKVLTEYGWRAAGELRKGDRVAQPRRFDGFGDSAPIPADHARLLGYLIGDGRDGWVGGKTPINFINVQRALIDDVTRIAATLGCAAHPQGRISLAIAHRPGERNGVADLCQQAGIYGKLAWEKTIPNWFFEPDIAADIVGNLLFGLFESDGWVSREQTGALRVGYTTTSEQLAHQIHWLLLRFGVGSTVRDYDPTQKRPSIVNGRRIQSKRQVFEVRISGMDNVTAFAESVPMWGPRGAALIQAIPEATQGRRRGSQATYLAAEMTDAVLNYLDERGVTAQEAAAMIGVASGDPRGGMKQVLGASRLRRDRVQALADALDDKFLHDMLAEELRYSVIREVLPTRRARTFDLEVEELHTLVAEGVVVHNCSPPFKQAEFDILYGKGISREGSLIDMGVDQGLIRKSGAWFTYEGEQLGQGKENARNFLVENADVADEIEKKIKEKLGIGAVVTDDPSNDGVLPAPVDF

[20] = molecular target: Ubiquitin carboxyl-terminal hydrolase BAP1 (Homo sapiens, UniProt Q92560); assay: inhibition of BAP1 ubiquitin hydrolase activity – biochemical, dose response (AID 714); type: functional
Sequence of Ubiquitin carboxyl-terminal hydrolase BAP1 (Q92560 whole entry): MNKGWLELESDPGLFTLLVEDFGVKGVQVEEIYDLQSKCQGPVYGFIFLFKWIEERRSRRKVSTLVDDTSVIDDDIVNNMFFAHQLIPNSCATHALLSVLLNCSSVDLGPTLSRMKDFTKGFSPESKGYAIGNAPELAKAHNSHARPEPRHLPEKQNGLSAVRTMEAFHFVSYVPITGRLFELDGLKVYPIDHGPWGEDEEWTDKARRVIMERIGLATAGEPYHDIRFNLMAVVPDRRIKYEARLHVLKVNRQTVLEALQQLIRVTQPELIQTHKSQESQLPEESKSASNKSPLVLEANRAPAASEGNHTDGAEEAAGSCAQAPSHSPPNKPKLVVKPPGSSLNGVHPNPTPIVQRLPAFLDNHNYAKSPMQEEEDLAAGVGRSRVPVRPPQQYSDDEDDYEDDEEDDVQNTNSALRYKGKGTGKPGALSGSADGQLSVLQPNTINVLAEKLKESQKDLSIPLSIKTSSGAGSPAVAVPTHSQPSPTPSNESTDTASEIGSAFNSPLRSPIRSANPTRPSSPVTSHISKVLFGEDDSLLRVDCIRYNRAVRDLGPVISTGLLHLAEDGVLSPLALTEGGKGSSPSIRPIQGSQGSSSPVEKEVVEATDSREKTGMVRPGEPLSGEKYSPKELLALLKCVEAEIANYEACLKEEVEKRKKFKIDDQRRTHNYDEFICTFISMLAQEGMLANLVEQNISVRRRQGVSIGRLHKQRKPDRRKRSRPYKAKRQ

Sequence of Protein-tyrosine kinase 2-beta (Q14289 whole entry): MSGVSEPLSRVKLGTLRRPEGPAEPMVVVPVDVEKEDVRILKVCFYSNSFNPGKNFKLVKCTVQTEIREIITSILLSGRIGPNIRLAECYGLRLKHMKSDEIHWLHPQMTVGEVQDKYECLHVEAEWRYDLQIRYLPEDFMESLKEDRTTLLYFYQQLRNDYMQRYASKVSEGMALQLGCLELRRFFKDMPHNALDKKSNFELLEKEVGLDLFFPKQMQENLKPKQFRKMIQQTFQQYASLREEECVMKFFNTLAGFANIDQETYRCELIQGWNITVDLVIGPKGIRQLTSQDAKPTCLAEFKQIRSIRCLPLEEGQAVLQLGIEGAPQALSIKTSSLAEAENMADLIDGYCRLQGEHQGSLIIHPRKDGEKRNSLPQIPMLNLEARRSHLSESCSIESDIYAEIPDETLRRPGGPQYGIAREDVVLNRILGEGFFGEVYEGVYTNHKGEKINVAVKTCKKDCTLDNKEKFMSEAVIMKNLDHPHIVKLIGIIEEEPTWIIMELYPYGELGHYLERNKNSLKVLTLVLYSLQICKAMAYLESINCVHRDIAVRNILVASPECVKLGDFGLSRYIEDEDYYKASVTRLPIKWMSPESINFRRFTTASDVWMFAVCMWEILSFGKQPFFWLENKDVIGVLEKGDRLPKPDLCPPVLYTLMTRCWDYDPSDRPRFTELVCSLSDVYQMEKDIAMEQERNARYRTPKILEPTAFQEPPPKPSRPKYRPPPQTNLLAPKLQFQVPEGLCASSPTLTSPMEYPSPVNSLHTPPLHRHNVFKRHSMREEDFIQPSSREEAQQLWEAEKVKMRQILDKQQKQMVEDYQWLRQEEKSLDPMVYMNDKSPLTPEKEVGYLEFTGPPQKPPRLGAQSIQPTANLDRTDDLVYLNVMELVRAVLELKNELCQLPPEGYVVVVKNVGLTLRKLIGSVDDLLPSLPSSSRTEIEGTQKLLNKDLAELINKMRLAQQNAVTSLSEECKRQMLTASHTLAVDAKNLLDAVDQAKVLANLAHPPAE

Structure (SMILES): O=C(OCCN=C1NS(=O)(=O)c2ccccc21)c1cccnc1
- IC50 [1]: > 69.5 µM (not active)

Structure (SMILES): Cc1nc2ccc(CN(C)c3ccc(C(=O)N[C@@H](CCC(=O)O)C(=O)O)s3)cc2c(=O)[nH]1
- IC50 [2]: 0.00424 µM (active)
- IC50 [3]: 0.0023 µM (active)
- IC50 [4]: > 20 µM (inactive)
- IC50 [5]: > 10 µM (inactive)
- IC50 [6]: 0.001 µM (active)
- IC50 [7]: 0.00288 µM (active)
- IC50 [8]: > 20 µM (inactive)
- IC50 [9]: > 10 µM (inactive)
- IC50 [10]: > 20 µM (inactive)
- IC50 [11]: > 20 µM (inactive)

Structure (SMILES): Cc1cnn(C(=S)NCc2ccc(Cl)cc2)c1
- IC50 [12]: > 100 µM (not active)

Structure (SMILES): O=C(COc1ccc2ccccc2c1Br)Nc1cccnc1
- IC50 (Major prion protein): 5.81 µM (active)
- IC50 [13]: > 67.5 µM (inactive)
- IC50 (cells [14]): > 138 µM (inactive)
- IC50 (cells [15]): > 67.5 µM (inactive)
- EC50 [16]: 0.24 µM (active)

Structure (SMILES): CN(C(=O)c1cccc(COc2ccc(Cl)cc2Cl)c1)c1ccccc1
- IC50 [17]: 2.2 µM (active)
- EC50 [18]: 0.16 µM (active)
- AC50 [19]: 10.6 µM (active)
- EC50 (Protein RecA): 7.59 µM (active)

Structure (SMILES): CCCCn1c2c(c3ccccc31)CCc1nonc1-2
- IC50 [20]: > 50 µM (not active)
